In one data set the test system is CTG-2264 tumors. The data set is described as follows: Combination efficacy study of anti-GD2 ADC and ATR inhibitor in osteosarcoma PDX model CTG-2264. The class given is in vivo, athymic nude mice (nu/nu). The following applies: Day 23; Molecule 1 3.0 mg/kg single IV Day0; ATR inhibitor 10 mg/kg p.o. qd; combination of both. How it is done: The antitumor activities of selected ADCs of the present invention were tested in the CTG-2264, osteosarcoma PDX model.
Vehicle control was saline and dosed (10 mL/kg) at Day0. The group size for each treatment group was 3. The calculation of the Tumor Growth Inhibition (TGI) was done for Day 23 after treatment start, when the mean tumor volume of the control group reached 1000 mm3 (see FIG. 11, 12).

The test system of data set [1] is CHP-134 (neuroblastoma) cells. The data set is described as follows: ADC cell killing assay (CellTiter Glo Luminescent Cell Viability assay) on CHP-134. In kind it is cell-based, human. As for the experimental part: (§1) The in vitro potency of the ADCs hu14.18-IgG1.4 (K322A)-delK-βGluc Exatecan and rituximab IgG1 βGluc Exatecan, the unconjugated antibody hu14.18-IgG1.4 (K322A)-delk and the free payload Exatecan was measured on antigen-positive human tumor cell lines CHP-134 (neuroblastoma, #ACC653, DSMZ, Braunschweig, Germany), NCI-H446 (small cell lung cancer (SCLC), #HTB-171, ATCC, Manassas, VA, USA) as well as M21 (melanoma, Scripps Research Institute, La Jolla, CA, USA) and antigen-negative human tumor cell line MDA-MB-468 (breast carcinoma, #ACC738, DSMZ, Braunschweig, Germany) using the CellTiter Glo® Luminescent Cell Viability assay (#G7573, Promega Corporation, Madison, WI, USA).
(§2) The cell lines CHP-134, NCI-H446 and MDA-MB-468 were cultured as instructed by vendor and maintained in RPMI1640 medium with GlutaMAX™ supplement (#61870-010, Gibco™, purchased from Thermo Fisher Scientific, Waltham, MA, USA), 1 mM sodium pyruvate (#11360-070, Gibco™, Thermo Fisher Scientific) and 10% fetal bovine serum (FBS) (#S0615, Sigma Aldrich, St. Louis, MO, USA). The melanoma cell line M21 was cultured in DMEM with stable L-glutamine (#41965-039, Gibco™, Thermo Fisher Scientific) and 10% FBS. […]
A general note: Cellular ATP, detected with luciferase, serves as a proxy for viable cell number.

In data set [2] the test system is NCI-H446 (small cell lung cancer) cells. The data set is described as follows: ADC cell killing assay (CellTiter Glo Luminescent Cell Viability assay) on NCI-H446. The class given is cell-based, human. How it is done: as §1, §2
The subject of a further data set is M21 (melanoma) cells. The data set is described as follows: ADC cell killing assay (CellTiter Glo Luminescent Cell Viability assay) on M21. In kind it is cell-based, human. As for the experimental part:
as §1, §2

In data set [3] the test system is MDA-MB-468 (breast carcinoma) cells. Briefly: ADC cell killing assay (CellTiter Glo Luminescent Cell Viability assay) on MDA-MB-468. The class given is cell-based, human. How it is done: as §1, §2
The conditions of data set [4]: cited from earlier work.

Regarding `Nc1nn2cc(F)cnc2c1C(=O)Nc1cncc(F)c1N1CCC(C(=O)N2CCN(C3COC3)CC2)CC1` [ATR inhibitor], the “tumor growth inhibition (TGI)” value in the data set with CTG-2264 tumors was found to be 67%.

In the case of `CC[C@@]1(O)C(=O)OCc2c1cc1n(c2=O)Cc2c-1nc1cc(F)c(C)c3c1c2[C@@H](N)CC3` [Exatecan, (1S,9S)-1-Amino-9-ethyl-5-fluoro-9-hydroxy-4-methyl-1,2,3,9,12,15-hexahydro-10H,13H-benzo[de]pyrano[3′,4′:6,7]indolizino[1,2-b]quinoline-10,13-dione], the “Span (%)” value in data set [1] (CHP-134, % efficacy at highest test concentration (100 nM for Molecule 1,2,4; 1 μM for Molecule 3), geomean) was determined as 100%; in data set [2] (NCI-H446, % efficacy at highest test concentration (100 nM for Molecule 1,2,4; 1 μM for Molecule 3), geomean), 96%; in the data set on M21 (melanoma) cells (M21, % efficacy at highest test concentration (100 nM for Molecule 1,2,4; 1 μM for Molecule 3), geomean), 95%; in data set [3] (MDA-MB-468, % efficacy at highest test concentration (100 nM for Molecule 1,2,4; 1 μM for Molecule 3), geomean), 100%. Moreover, the IC50 (usually the concentration that gives 50% inhibition) in data set [1] (Homo sapiens, CHP-134, 144 h) was determined as 0.2 nM; in data set [2] (Homo sapiens, NCI-H446, 144 h) it was 0.07 nM; in the data set with M21 (melanoma) cells (Homo sapiens, M21, 144 h), 1.1 nM; in data set [3] (Homo sapiens, MDA-MB-468, 144 h) it was 0.3 nM.

B1: Dinutaximab beta (antibody, chains of the INN, looked up, V domains shown)
VH: EVQLLQSGPELEKPGASVMISCKASGSSFTGYNMNWVRQNIGKSLEWIGAIDPYYGGTSYNQKFKGRATLTVDKSSSTAYMHLKSLTSEDSAVYYCVSGMEYWGQGTSVTVSS
VL: EIVMTQSPATLSVSPGERATLSCRSSQSLVHRNGNTYLHWYLQKPGQSPKLLIHKVSNRFSGVPDRFSGSGSGTDFTLKISRVEAEDLGVYFCSQSTHVPPLTFGAGTKLELK
For B1, the clinical signs entry in data set [4] (cynomolgus monkeys, EMA/263814/2017) was “clinical signs that were interpreted as acute pain”. For the same molecule, the “histopathology of peripheral nervous system” value in data set [4] (infused 4 h/day for 10 consecutive days, 30 and 100 mg/m^2/day) is “histopathological changes were noted on day 15 in the peripheral nerves and visceral nervous innervation of organs”.
